IC50 and Activity over compstatin data for 47 compounds are collected here from patent US20240360103A1, “COMPLEMENT INHIBITION” (Apellis Pharmaceuticals, Inc., priority 2021, published 2024).

Assay [1] deals with complement alternative pathway. In words: Wieslab AP assay (Complement Alternative Pathway ELISA, human serum as source of complement). In kind it is biochemical. The following applies: read-out: B: Wieslab AP IC50 (nM) (alternative pathway). An excerpt:
Among other things, the present disclosure provides compounds and compositions that can modulate complement activation. In some embodiments, provided technologies inhibit complement activation. In some embodiments, provided technologies inhibit C3 convertase. Various technologies are available for assessing provided compounds, compositions and methods. In some embodiments, a useful assay is an assay described below. In some embodiments, IC50 of a provided compound measured in an assay is about or no more than about 1000, 900, 800, 700, 600, 500, 400, 300, 200, 100, 90, 80, 70, 60, 50, 40, 30, 20, or 10 nM. In some embodiments, a useful assay is a biochemical assay assessing inhibition of C3 convertase activity by a provided compound. In some embodiments, a purified, isolated or enriched C3 convertase is utilized. In some embodiments, CVF:Bb (e.g., assembled from three components Cobra Venom Factor (CVF), Complement Factor B (FB) and Complement Factor D (FD)) was utilized (certain results are presented as “A” in the Table below). In some embodiments, a compound was first contacted with CVF:Bb, followed by addition of C3 substrates. As those skilled in the art will appreciate, products C3a and/or C3b could be detected through a number of technologies (e.g., antibodies specific for a product) and reduction of levels of one or both of them could be utilized to assess inhibition. In some embodiments, a useful assay is Wieslab© assay (certain results are presented as “B” in the Table below).
In some embodiments, classical and alternative pathway activity are assessed using Wieslab© technologies. In some embodiments, Wieslab© assay were performed with a commercially available kit, using a protocol adapted for measurement of complement inhibitory activity of compounds. In some embodiments, human serum was utilized as a positive control. In some embodiments, human serum serves as a source of complement proteins, and inhibition of complement activity of a serum by various compounds were assessed. In some embodiments, a kit is COMPL AP330, Complement Alternative Pathway ELISA, Eagle Biosciences. In some embodiments, a kit is COMPL CP310, Complement Classical Pathway ELISA, Eagle Biosciences. In some embodiments, kits are available from VWR (102994-104, Complement Alternative pathway ELISA, Eagle Biosciences, Inc.; 102994-106, Complement Classical pathway ELISA, Eagle Biosciences, Inc.).
In some embodiments, a useful procedure described below is utilized. • 1. Make fresh test compound stock at 1 mM. • 2. Test compound serial dilution: dilute the stock to working stock concentrations. Add DMSO to dilution buffer using same dilution factor for the working stock so the composition of all the serial diluted stock is the same. In some embodiments, stock was serial diluted from the working stock 1:4 (for classical pathway) or 1:2 (for alternative pathway) using new diluted dilution buffers. • 3. Dilute positive controls using the dilution buffer provided with the assay kit to 2× of the final conc., for classical pathway, 50.5×. Positive control is human serum, which contains complement proteins. • 4. Add 125 μL of test compound solution and 125 μL of diluted positive control to a 96 well polypropylene plate, mix gently and cover the plate and incubate at 4° C. for 30 min. • 5. Add 100 μL/well to the assay plate and incubate at 37° C. for 1 h. Typically, controls in the assay plate, for example, buffer alone for negative control, positive control alone to verify the complement activity of the reagent. • 6. Wash plate and add 100 μL/well conjugate, incubate at room temperature for 30 min. • 7. Wash plate and add 100 μL/well substrate, then incubate at room temperature for approximately 30 minutes. Periodically monitor the absorbance at 405 nm (OD405) in the positive control alone well. • 8. Once the OD405 is >1, read the whole plate immediately. Or stop the reaction by adding 100 μL of 5 mM EDTA to each well and read within 60 minutes.

Assay [2] concerns the target C3 convertase (CVF:Bb) (Homo sapiens, UniProt P00751). Nature of the assay: C3 Convertase Assay (biochemical assay, compound contacted with CVF:Bb, then C3 substrate added). The source says:
Various technologies are available for assessing provided compounds, compositions and methods. In some embodiments, a useful assay is an assay described below. […] In some embodiments, a purified, isolated or enriched C3 convertase is utilized. […] In some embodiments, a compound was first contacted with CVF:Bb, followed by addition of C3 substrates. As those skilled in the art will appreciate, products C3a and/or C3b could be detected through a number of technologies (e.g., antibodies specific for a product) and reduction of levels of one or both of them could be utilized to assess inhibition.

Assay [3] has as its system complement activation. To be noted: relative to compstatin amidated at the C-terminus; published data; cited from earlier work.

C3 convertase (CVF:Bb), sequence (P00751 260-764 limits assumed): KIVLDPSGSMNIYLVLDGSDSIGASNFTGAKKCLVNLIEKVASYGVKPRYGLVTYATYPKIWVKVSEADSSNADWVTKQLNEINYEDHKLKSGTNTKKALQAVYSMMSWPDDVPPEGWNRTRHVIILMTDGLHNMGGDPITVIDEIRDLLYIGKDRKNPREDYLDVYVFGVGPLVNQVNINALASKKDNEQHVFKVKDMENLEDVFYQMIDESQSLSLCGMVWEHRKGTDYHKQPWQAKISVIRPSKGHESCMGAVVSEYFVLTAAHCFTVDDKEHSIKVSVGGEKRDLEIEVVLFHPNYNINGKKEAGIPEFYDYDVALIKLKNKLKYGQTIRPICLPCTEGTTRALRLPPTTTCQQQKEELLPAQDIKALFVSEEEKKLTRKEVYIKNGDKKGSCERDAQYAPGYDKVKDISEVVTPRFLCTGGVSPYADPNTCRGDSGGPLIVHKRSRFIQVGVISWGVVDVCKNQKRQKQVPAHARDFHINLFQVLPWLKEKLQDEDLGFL

For `COc1cc(C)c2[nH]ccc2c1CN1CCN(C)CC1c1ccc(C(=O)O)cc1` (stereo not shown), the IC50 was found to be 1570 nM in assay [1] and 163 nM in assay [2].

`COc1cc(C)c2[nH]ccc2c1CN1CCN(C2CC2)CC1c1ccc(C(=O)O)cc1` (stereo not shown): the IC50 in assay [1] was determined as 29 nM; in assay [2], 141 nM. On to “Ac-ICV(2-Nal)QDWGAHRCT-CONH2 [Ac-V4(2-Nal)/H9A]”, for which the Activity over compstatin in assay [3] is 99xmore. For Ac-ICVYQDWGAHRCT-CONH2 [Ac-V4Y/H9A], in assay [3], the Activity over compstatin is reported as 14xmore. For `COc1cc(C)c2[nH]ccc2c1CN1CCN(CCCF)CC1c1ccc(C(=O)O)cc1` (stereo not shown), the half-inhibitory concentration (IC50) in assay [1] stood at 153 nM; in assay [2] it was 119 nM. The like results for `COc1cc(C)c2[nH]ccc2c1CN1CC(=O)N(C)C[C@H]1c1ccc(C(=O)O)cc1` were, in that order, 1000 nM and 6400 nM.

For `COc1cc(C)c2[nH]ccc2c1CN1CCN(CCC(F)(F)F)C[C@H]1c1ccc(C(=O)NS(C)(=O)=O)cc1`, the IC50 in assay [1] worked out at 65 nM; in assay [2], 56 nM. The like results for `COc1cc(C)c2[nH]ccc2c1CN1CCN(Cc2ncc[nH]2)C[C@H]1c1ccc(C(=O)O)cc1` were, in that order, 8860 nM and over 10000 nM. The corresponding values for `COc1cc(C)c2[nH]ccc2c1CN1CCN(CCC(F)(F)F)C[C@@H]1c1ccc(C(=O)O)nc1` are over 10000 nM and 6440 nM.

As to “Ac-ICV(2-Igl)QDWGAHRCT-COOH [Ac-V42Igl/H9A-OH]”, the Activity over compstatin in assay [3] is reported as 37xmore. With `COc1cc(C)c2[nH]ccc2c1CN1CCN(CCC(F)F)C[C@H]1c1ccc(C(=O)O)cc1`, the IC50 in assay [1] and in assay [2] was 27 nM in each case. With “Ac-ICVWQD(5fW)GAHRCT-CONH2 [Ac-V4W/W7(5fW)/H9A]”, the Activity over compstatin in assay [3] is on record as 121xmore. For the compound `COc1cc(C)c2[nH]ccc2c1CN1CCN(CCO)C[C@H]1c1ccc(C(=O)O)cc1`, the IC50 was found to be 128 nM in assay [1] and 350 nM in assay [2]. The like results for `COc1cc(C)c2[nH]ccc2c1CN1CCN(CC(F)(F)F)C[C@H]1c1ccc(C(=O)O)cc1` were, in that order, 174 nM and 176 nM.

As for “Ac-ICWVQDWGHHRCT-CONH2 (Ac-ICWVQDWGHHRCT-NH2; not fully specified (bridges); printed as Ac-ICWVQDWGHHRCT-CONH2; cysteine pairing not given here) [Ac-compstatin, "compstatin analogs useful in the present disclosure"]”, the Activity over compstatin in assay [3] is on record as 3xmore.

For the compound “Ac-ICV(2-Nal)QDWGAHRCT-COOH [Ac V4(2-Nal)/H9A-OH]”, the Activity over compstatin in assay [3] is recorded as 38xmore. In the case of `Cc1cc(C2CC2)c(CN2CCN(CC(F)F)C[C@H]2c2ccc(C(=O)O)cc2)c2cc[nH]c12` [drawing 450], the IC50 in assay [1] is 396 nM. In the case of `COc1cc(C)c2[nH]ccc2c1CN1CCN(C)C(=O)[C@H]1c1ccc(C(=O)O)cc1`, the IC50 in assay [1] turned out to be 1000 nM; in assay [2], 360 nM. The like results for `CCN1CCN(Cc2c(OC)cc(C)c3[nH]ccc23)C(c2ccc(C(=O)O)cc2)C1` (stereo not shown) were, in that order, 205 nM and 219 nM.

For the compound “Ac-ICV(Bpa)QDWGAHRCT-CONH2 [Ac-V4(Bpa)/H9A]”, the Activity over compstatin in assay [3] is given as 86xmore. Take “Ac-ICV(Bpa)QDWGAHRCT-COOH [Ac-V4(Bpa)/H9A-OH]”: the Activity over compstatin in assay [3] was 49xmore. As to `COc1cc(C)c2[nH]ccc2c1CN1CCN(CC(C)(F)F)C[C@H]1c1ccc(C(=O)O)cc1`, the results for the IC50 in assay [1] and in assay [2] were 211 nM and 272 nM, respectively. The corresponding values for `COc1cc(C)c2[nH]ccc2c1CN1CCN(CC(F)(F)F)C[C@H]1c1ccc(C(=O)NS(C)(=O)=O)cc1` are 382 nM and 212 nM. With “Ac-ICV(1-Nal)QDWGAHRCT-COOH [Ac V4(1-Nal)/H9A-OH]”, in assay [3], the Activity over compstatin is reported as 30xmore. Consider `COc1cc(C)c2[nH]ccc2c1CN1CCN(Cc2ncc[nH]2)C[C@@H]1c1ccc(C(=O)O)cc1`, for which the IC50 in assay [1] was over 10000 nM. As to `COc1cc(C)c2[nH]ccc2c1CN1CCN(CC(F)F)C[C@H]1c1ccc(C(=O)NS(C)(=O)=O)cc1`, the IC50 in assay [1] came out at 8 nM; in assay [2] it was 243 nM. The like results for `COc1cc(C)c2[nH]ccc2c1CN1CCN(CC(F)F)CC1c1ccc(C(=O)O)cc1` (stereo not shown) were, in that order, 36 nM and 76 nM. Consider `[2H]C([2H])([2H])N1CCN(Cc2c(OC)cc(C)c3[nH]ccc23)[C@H](c2ccc(C(=O)O)cc2)C1`, for which the IC50 in assay [1] was found to be 9 nM; in assay [2] it was 65 nM. With `COc1cc(C)c2[nH]ccc2c1CN1CCN(C(C)CC(F)(F)F)C[C@H]1c1ccc(C(=O)O)cc1` (stereo partly shown), in assay [1], the IC50 stood at 110 nM. As for `COc1cc(C)c2[nH]ccc2c1CN1CCN(CCC(F)(F)F)C[C@H]1c1ccc(C(=O)O)nc1`, the IC50 worked out at 34 nM in assay [1] and 96 nM in assay [2]. The corresponding values for `C=CCN1CCN(Cc2c(OC)cc(C)c3[nH]ccc23)C(c2ccc(C(=O)O)cc2)C1` (stereo not shown) are 1490 nM and 250 nM. On to `COc1cc(C)c2[nH]ccc2c1CN1CCN(C)C[C@H]1c1ccc(C(=O)O)cc1` (single isomer, unassigned), for which the figures for the IC50 in assay [1] and in assay [2] were 64 nM and 45 nM, respectively. Compound `COc1cc(C)c2[nH]ccc2c1CN1CCN(CC2CCC2)CC1c1ccc(C(=O)O)cc1` (stereo not shown) displayed an IC50 in assay [2] of 1350 nM. Still for that read-out and setting: under `COc1cc(C)c2[nH]ccc2c1CN1CC2(CC2)N(C)C[C@H]1c1ccc(C(=O)O)cc1` stands 7390 nM; under `CCC(C)N1CCN(Cc2c(OC)cc(C)c3[nH]ccc23)C(c2ccc(C(=O)O)cc2)C1` (stereo not shown), 405 nM. `COc1cc(Cl)c2[nH]ccc2c1CN1CCN(CC(F)(F)F)C[C@@H]1c1ccc(C(=O)O)cc1` registered an IC50 in assay [2] of over 10000 nM. On the same count and under the same terms, under `COc1cc(C)c2[nH]ccc2c1CN1CCN(CC2CCCC2)CC1c1ccc(C(=O)O)cc1` (stereo not shown) stands 3080 nM. Take `COc1cc(C)c2[nH]ccc2c1CN1CCN(CCC(F)(F)F)C[C@H]1c1ccc(C(=O)O)cc1`: the IC50 in assay [1] came to 13 nM; in assay [2], 29 nM. Compound `COc1cc(C)c2[nH]ccc2c1CN1CCN(c2ncccn2)C[C@H]1c1ccc(C(=O)O)cc1` displayed an IC50 in assay [2] of over 10000 nM. Still for that read-out and setting: to `COc1cc(C)c2[nH]ccc2c1CN1CCN(CC(C)C)CC1c1ccc(C(=O)O)cc1` (stereo not shown) belongs 4670 nM. The same measure, in the same setting: under `COc1cc(C)c2[nH]ccc2c1C(=O)N1CCN(C)CC1c1ccc(C(=O)O)cc1` (stereo not shown) stands over 10000 nM; under `COc1cc(C)c2[nH]ccc2c1CN1CCN(C2COC2)CC1c1ccc(C(=O)O)cc1` (stereo not shown), over 10000 nM.

Take `COc1cc(Cl)c2[nH]ccc2c1CN1CCN(CC(F)F)C[C@H]1c1ccc(C(=O)O)cc1` [drawing 446]: in assay [2], inhibition was half-maximal at 3150 nM (IC50).

Turning to `COc1cc(C)c2[nH]ccc2c1CN1CCN(CC2CC2)CC1c1ccc(C(=O)O)cc1` (stereo not shown), the IC50 in assay [2] worked out at 2290 nM. As to `COc1cc(C)c2[nH]ccc2c1CN1CCN(C(C)C(F)F)C[C@H]1c1ccc(C(=O)O)cc1` (stereo partly shown), the IC50 in assay [1] is 230 nM; in assay [2], 228 nM.

Take `COc1cc(C)c2[nH]ccc2c1CN1CCN(CCF)CC1c1ccc(C(=O)O)cc1` (stereo not shown): the IC50 in assay [1] turned out to be 107 nM; in assay [2], 65 nM. Regarding `COc1cc(C)c2[nH]ccc2c1CN1CCN(C)C[C@@H]1c1ccc(C(=O)O)cc1` (single isomer, unassigned), in assay [2], the IC50 was over 10000 nM.
